Results reported in PubChem BioAssay (NCI).
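All cell lines were grown in 96-well plates and treated with compound for 48 hours. TGI is the concentration that stops growth completely.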

Key:
Assay in all cases: NCI anticancer screen, dose series, 48 h
NCI/ADR-RES ovarian = test system: NCI/ADR-RES ovarian
TK-10 renal = test system: TK-10 renal
OVCAR-5 ovarian = test system: OVCAR-5 ovarian
OVCAR-3 ovarian = test system: OVCAR-3 ovarian
A498 renal = test system: A498 renal
NCI-H226 lung = test system: NCI-H226 lung
HT29 colon = test system: HT29 colon
T-47D breast = test system: T-47D breast
COLO 205 colon = test system: COLO 205 colon
SNB-75 CNS = test system: SNB-75 CNS
RXF 393 renal = test system: RXF 393 renal
NCI-H23 lung = test system: NCI-H23 lung
HL-60(TB) leukemia = test system: HL-60(TB) leukemia
HS 578T breast = test system: HS 578T breast
SF-295 CNS = test system: SF-295 CNS
MALME-3M melanoma = test system: MALME-3M melanoma
SK-MEL-2 melanoma = test system: SK-MEL-2 melanoma

Row | Compound | TGI (NCI/ADR-RES ovarian) [µM] | TGI (TK-10 renal) [µM] | TGI (OVCAR-5 ovarian) [µM] | TGI (OVCAR-3 ovarian) [µM] | TGI (A498 renal) [µM] | TGI (NCI-H226 lung) [µM] | TGI (HT29 colon) [µM] | TGI (T-47D breast) [µM] | TGI (COLO 205 colon) [µM] | TGI (SNB-75 CNS) [µM] | TGI (RXF 393 renal) [µM] | TGI (NCI-H23 lung) [µM] | TGI (HL-60(TB) leukemia) [µM] | TGI (HS 578T breast) [µM] | TGI (SF-295 CNS) [µM] | TGI (MALME-3M melanoma) [µM] | TGI (SK-MEL-2 melanoma) [µM]
1 | CN(C)c1ccc(N=C2N=C(Nc3ccccc3)C(=Nc3ccccc3)S2)cc1 | > 100 | > 100 | > 100 | > 100 | > 100 | > 100 | > 100 | > 100 | > 100 | 81.4 | > 100 | > 100 | > 100 | > 100 | > 100 | > 100 | > 100
2 | Fc1cc2nc3n(c2cc1F)C(c1c(F)cccc1F)SC3 (stereo not given) | > 100 | > 100 | > 100 | > 100 | 98.3 | > 100 | > 100 | > 100 | > 100 | > 100 | > 100 | > 100 | 51.2 | > 100 | > 100 | > 100 | > 100
3 | O=C(CCN1CCCCC1)Nc1ccc2c(c1)C(=O)c1ccc(NC(=O)CCN3CCCCC3)cc1C2=O | 25.8 | 21.2 | 31.4 | 20.9 | 26.7 | 29.6 | 9.99 | 32.1 | 24 | 8 | 17.6 | 12.5 | 20.8 | 26.2 | 10.4 | 25.5 | 9.92
4 | O=C(N/C(=C\c1ccccc1)c1nc2ccccc2c(=O)o1)c1ccccc1 | > 100 | > 100 | > 100 | > 100 | > 100 | > 100 | > 100 | > 100 | > 100 | > 86.3 | > 100 | > 100 | > 100 | 75.7 | > 100 | > 100 | > 100
5 | CCS1=C2C(=O)CC(C)(C)CC2=Nc2ccccc21 (stereo not given) | > 100 | > 100 | > 100 | > 100 | > 100 | > 100 | > 100 | > 100 | > 100 | > 100 | > 100 | > 100 | > 100 | > 100 | > 100 | > 100 | > 100
6 | CC(NNC(=O)c1ccncc1)c1ccccc1 (stereo not given) | > 100 | > 100 | > 100 | > 100 | > 100 | > 100 | > 100 | > 100 | > 100 | > 100 | > 100 | > 100 | > 100 | > 100 | > 100 | > 100 | > 100
7 | CC(=O)Nc1ccc(S(=O)(=O)c2nnc(NC(C)=O)s2)cc1 | > 100 | > 100 | > 100 | > 100 | > 100 | > 100 | > 100 | > 100 | 0.537 | > 100 | > 100 | > 100 | > 100 | > 100 | > 100 | > 100 | > 100
8 | N#Cc1ccc(C2ON=C(c3ccccc3)N2C23CC4CC(CC(C4)C2)C3)cc1 (stereo not given) | > 10 | > 10 | > 10 | > 10 | > 10 | > 10 | > 10 | > 10 | > 10 | > 10 | > 10 | > 10 | > 10 | > 10 | > 10 | > 10 | > 10
9 | C/C(=N\O)c1ccc(OCc2cc(C(F)(F)F)cc(C(F)(F)F)c2)cc1 | > 100 | > 100 | > 100 | > 100 | > 100 | > 100 | > 100 | > 100 | > 100 | > 100 | 72.4 | > 100 | 25.5 | > 100 | > 100 | > 100 | > 100
10 | NC1CCN(c2nc3ccccc3c3c2CCCC3)CC1 | 28.8 | 23.2 | 19 | 28.1 | 22.7 | 24.3 | 5.27 | 7.29 | 3.22 | 22.1 | 11.2 | 28.2 | 8.84 | > 100 | 26.4 | 19.8 | 10.5
